Data from patent US20080153896A1, “Polymorphic Forms of an HMG-CoA Reductase Inhibitor and Uses Thereof” (priority 2006, published 2008).

Experiment: Stability (integrity) testing of amorphous and polymorphic form under storage conditions, RP-HPLC
Type: physicochemical
Set-up: key to Impurity RRT 0.738 / Impurity RRT 0.949 / Impurity RRT 1.050 / Impurity RRT 1.550 / Impurity RRT 0.136 / Impurity RRT 0.720 / Impurity RRT 0.706 / Impurity RRT 1.18 / Impurity RRT 1.826: % of total UV absorption (HPLC peak area); Impurity RRT 1.104 / Impurity RRT 1.698: unit not given beside the values
Conditions: Batch 3 PP00205
Procedure: The integrity of the different forms of the (3R, 5R)-7-[2-(4-fluorophenyl)-5-isopropyl-3-phenyl-4-[(4-hydroxymethylphenylamino)carbonyl]-pyrrol-1-yl]-3,5-dihydroxy-heptanoic acid, hemi calcium salt, was tested under different atmospheric conditions to determine the stability of the amorphous and polymorphic form of the drug in various storage environments. Reversed Phase-HPLC (RP-HPLC) was used to separate (3R, 5R)-7-[2-(4-fluorophenyl)-5-isopropyl-3-phenyl-4-[(4-hydroxymethylphenylamino)carbonyl]-pyrrol-1-yl]-3,5-dihydroxy-heptanoic acid, hemi calcium salt, from smaller molecules representing breakdown products as well as oxidized drug. The relative amount of the drug was reported as a percent of total absorption by UV. The total peak area of all UV absorption impurities was used to define total impurity of the drug. Impurities are defined by their relative retention time (RRT) compared to native drug. Samples were injected onto a C18 column using standard temperature, gradient and run-time conditions.
The results of this integrity testing for the amorphous form of (3R, 5R)-7-[2-(4-fluorophenyl)-5-isopropyl-3-phenyl-4-[(4-hydroxymethylphenylamino)carbonyl]-pyrrol-1-yl]-3,5-dihydroxy-heptanoic acid, hemi calcium salt, is shown in Table 5.
Three separate batches of polymorphic Form I of (3R, 5R)-7-[2-(4-fluorophenyl)-5-isopropyl-3-phenyl-4-[(4-hydroxymethylphenylamino)carbonyl]-pyrrol-1-yl]-3,5-dihydroxy-heptanoic acid, hemi calcium salt, were prepared and tested under the same atmospheric conditions described for the amorphous form.

- Impurity RRT 1.045 (25° C./60% RH 12M): 0.344
- Impurity RRT 1.095 (25° C./60% RH 12M): 0.165
- Impurity RRT 1.449 (25° C./60% RH 12M): 0.195
- Impurity RRT 1.596 (25° C./60% RH 12M): 0.086
- Impurity RRT 1.640 (25° C./60% RH 12M): 0.052
- Impurity RRT 1.698 (25° C./60% RH 12M): 0.061
- Total Impurity (25° C./60% RH 12M): 1.506
- Water (25° C./60% RH 12M): 5.57 % W/W
- Assay (30° C./65% RH 1M): 98.21 % W/W
- Description (30° C./65% RH 1M): White
- Highest Impurity (30° C./65% RH 1M): 0.449
- Impurity RRT 0.935 (30° C./65% RH 1M): 0.449
- Impurity RRT 1.045 (30° C./65% RH 1M): 0.385
- Impurity RRT 1.095 (30° C./65% RH 1M): 0.162
- Impurity RRT 1.44 (30° C./65% RH 1M): 0.234
- Impurity RRT 1.590 (30° C./65% RH 1M): 0.102
- Impurity RRT 1.640 (30° C./65% RH 1M): 0.071
- Impurity RRT 1.698 (30° C./65% RH 1M): 0.072
- Total Impurity (30° C./65% RH 1M): 1.495
- Water (30° C./65% RH 1M): 4.47 % W/W
- Assay (30° C./65% RH 2M): 98.27 % W/W
- Description (30° C./65% RH 2M): White
- Highest Impurity (30° C./65% RH 2M): 0.416
- Impurity RRT 0.935 (30° C./65% RH 2M): 0.416
- Impurity RRT 1.045 (30° C./65% RH 2M): 0.362
- Impurity RRT 1.095 (30° C./65% RH 2M): 0.163
- Impurity RRT 1.18 (30° C./65% RH 2M): 0.048
- Impurity RRT 1.44 (30° C./65% RH 2M): 0.216
- Impurity RRT 1.590 (30° C./65% RH 2M): 0.100
- Impurity RRT 1.640 (30° C./65% RH 2M): 0.063
- Impurity RRT 1.698 (30° C./65% RH 2M): 0.062
- Total Impurity (30° C./65% RH 2M): 1.43
- Water (30° C./65% RH 2M): 4.59 % W/W
- Assay (30° C./65% RH 3M): 98.21 % W/W
- Description (30° C./65% RH 3M): White
- Highest Impurity (30° C./65% RH 3M): 0.432
- Impurity RRT 0.935 (30° C./65% RH 3M): 0.432
- Impurity RRT 1.045 (30° C./65% RH 3M): 0.37
- Impurity RRT 1.095 (30° C./65% RH 3M): 0.168
- Impurity RRT 1.44 (30° C./65% RH 3M): 0.228
- Impurity RRT 1.590 (30° C./65% RH 3M): 0.096
- Impurity RRT 1.640 (30° C./65% RH 3M): 0.057
- Impurity RRT 1.698 (30° C./65% RH 3M): 0.064
- Total Impurity (30° C./65% RH 3M): 1.43
- Water (30° C./65% RH 3M): 4.82 % W/W
- Assay (30° C./65% RH 6M): 98.06 % W/W
- Description (30° C./65% RH 6M): White
- Highest Impurity (30° C./65% RH 6M): 0.418
- Impurity RRT 0.935 (30° C./65% RH 6M): 0.418
- Impurity RRT 1.045 (30° C./65% RH 6M): 0.352
- Impurity RRT 1.095 (30° C./65% RH 6M): 0.134
- Impurity RRT 1.449 (30° C./65% RH 6M): 0.224
- Impurity RRT 1.596 (30° C./65% RH 6M): 0.095
- Impurity RRT 1.640 (30° C./65% RH 6M): 0.077
- Impurity RRT 1.698 (30° C./65% RH 6M): 0.052
- Total Impurity (30° C./65% RH 6M): 1.352
- Water (30° C./65% RH 6M): 4.87 % W/W
- Assay (30° C./65% RH 9M): 97.89 % W/W
- Description (30° C./65% RH 9M): White
- Highest Impurity (30° C./65% RH 9M): 0.407
- Impurity RRT 0.935 (30° C./65% RH 9M): 0.407
- Impurity RRT 1.045 (30° C./65% RH 9M): 0.340
- Impurity RRT 1.095 (30° C./65% RH 9M): 0.150
- Impurity RRT 1.449 (30° C./65% RH 9M): 0.216
- Impurity RRT 1.596 (30° C./65% RH 9M): 0.103
- Impurity RRT 1.640 (30° C./65% RH 9M): 0.064
- Impurity RRT 1.698 (30° C./65% RH 9M): 0.053
- Total Impurity (30° C./65% RH 9M): 1.333
- Water (30° C./65% RH 9M): 4.91 % W/W
- Assay (30° C./65% RH 12M): 97.80 % W/W
- Description (30° C./65% RH 12M): White
- Highest Impurity (30° C./65% RH 12M): 0.424
- Impurity RRT 0.935 (30° C./65% RH 12M): 0.424
- Impurity RRT 1.045 (30° C./65% RH 12M): 0.363
- Impurity RRT 1.095 (30° C./65% RH 12M): 0.172
- Impurity RRT 1.449 (30° C./65% RH 12M): 0.197
- Impurity RRT 1.596 (30° C./65% RH 12M): 0.089
- Impurity RRT 1.640 (30° C./65% RH 12M): 0.064
- Impurity RRT 1.698 (30° C./65% RH 12M): 0.058
- Total Impurity (30° C./65% RH 12M): 1.367
- Water (30° C./65% RH 12M): 5.33 % W/W
- Assay (40° C./75% RH 1M): 98.23 % W/W
- Description (40° C./75% RH 1M): White
- Highest Impurity (40° C./75% RH 1M): 0.452
- Impurity RRT 0.935 (40° C./75% RH 1M): 0.452
- Impurity RRT 1.045 (40° C./75% RH 1M): 0.372
- Impurity RRT 1.095 (40° C./75% RH 1M): 0.162
- Impurity RRT 1.44 (40° C./75% RH 1M): 0.215
- Impurity RRT 1.590 (40° C./75% RH 1M): 0.100
- Impurity RRT 1.640 (40° C./75% RH 1M): 0.071
- Impurity RRT 1.698 (40° C./75% RH 1M): 0.066
- Total Impurity (40° C./75% RH 1M): 1.46
- Water (40° C./75% RH 1M): 4.33 % W/W
- Assay (40° C./75% RH 2M): 98.23 % W/W
- Description (40° C./75% RH 2M): White
- Highest Impurity (40° C./75% RH 2M): 0.422
- Impurity RRT 0.935 (40° C./75% RH 2M): 0.422
- Impurity RRT 1.045 (40° C./75% RH 2M): 0.351
- Impurity RRT 1.095 (40° C./75% RH 2M): 0.169
- Impurity RRT 1.18 (40° C./75% RH 2M): 0.052
- Impurity RRT 1.44 (40° C./75% RH 2M): 0.219
- Impurity RRT 1.590 (40° C./75% RH 2M): 0.090
- Impurity RRT 1.640 (40° C./75% RH 2M): 0.066
- Impurity RRT 1.698 (40° C./75% RH 2M): 0.065
- Total Impurity (40° C./75% RH 2M): 1.44
- Water (40° C./75% RH 2M): 4.40 % W/W
- Assay (40° C./75% RH 3M): 98.2 % W/W
- Description (40° C./75% RH 3M): White
- Highest Impurity (40° C./75% RH 3M): 0.423
- Impurity RRT 0.935 (40° C./75% RH 3M): 0.423
- Impurity RRT 1.045 (40° C./75% RH 3M): 0.360
- Impurity RRT 1.095 (40° C./75% RH 3M): 0.174
- Impurity RRT 1.44 (40° C./75% RH 3M): 0.218
- Impurity RRT 1.590 (40° C./75% RH 3M): 0.102
- Impurity RRT 1.640 (40° C./75% RH 3M): 0.065
- Impurity RRT 1.698 (40° C./75% RH 3M): 0.064
- Total Impurity (40° C./75% RH 3M): 1.41
- Water (40° C./75% RH 3M): 4.75 % W/W
- Assay (40° C./75% RH 6M): 98.16 % W/W
- Description (40° C./75% RH 6M): White
- Highest Impurity (40° C./75% RH 6M): 0.418
- Impurity RRT 0.138 (40° C./75% RH 6M): 0.107
- Impurity RRT 0.935 (40° C./75% RH 6M): 0.418
- Impurity RRT 1.045 (40° C./75% RH 6M): 0.347
- Impurity RRT 1.095 (40° C./75% RH 6M): 0.161
- Impurity RRT 1.449 (40° C./75% RH 6M): 0.187
- Impurity RRT 1.596 (40° C./75% RH 6M): 0.087
- Impurity RRT 1.640 (40° C./75% RH 6M): 0.050
- Impurity RRT 1.698 (40° C./75% RH 6M): 0.052
- Total Impurity (40° C./75% RH 6M): 1.409
- Water (40° C./75% RH 6M): 5.44 % W/W
- Assay (Initial): 98.43 % W/W
- Description (Initial): White
- Highest Impurity (Initial): 0.428
- Impurity RRT 0.706 (Initial): 0.045
- Impurity RRT 0.935 (Initial): 0.428
- Impurity RRT 1.045 (Initial): 0.349
- Impurity RRT 1.095 (Initial): 0.159
- Impurity RRT 1.44 (Initial): 0.235
- Impurity RRT 1.590 (Initial): 0.093
- Impurity RRT 1.640 (Initial): 0.054
- Impurity RRT 1.698 (Initial): 0.084
- Total Impurity (Initial): 1.438
- Water (Initial): 4.76 % W/W
SMILES: CC(C)c1c(C(=O)Nc2ccc(CO)cc2)c(-c2ccccc2)c(-c2ccc(F)cc2)n1CC[C@@H](O)C[C@@H](O)CC(=O)[O-].CC(C)c1c(C(=O)Nc2ccc(CO)cc2)c(-c2ccccc2)c(-c2ccc(F)cc2)n1CC[C@@H](O)C[C@@H](O)CC(=O)[O-].[Ca+2] [Form I, (3R,5)-7-[2-(4-fluorophenyl)-5-isopropyl-3-phenyl-4-[(4-hydroxymethylphenylamino)carbonyl]-pyrrol-1-yl]-3,5-dihydroxy-heptanoic acid, hemi calcium salt]
